These are literature values, as cited in paper PMC2749889 (Journal of neurochemistry, 2009).

In one data set the test system is α6 ^*. As to conditions: ref Klink et al. 2001; Mogg et al. 2002.
A further data set deals with α9 homomers. As to conditions: read-out: IC50, α9 homomers; ref Verbitsky et al. 2000.

Turning to `CCN1C[C@]2(COC(=O)c3ccccc3N3C(=O)C[C@H](C)C3=O)CC[C@H](OC)[C@@]34[C@@H]5C[C@H]6[C@H](OC)[C@@H]5[C@](O)(C[C@@H]6OC)[C@@](O)([C@@H](OC)[C@H]23)[C@@H]14` [MLA, Methyllycaconitine], the “block of α6 ^*” value with α6 ^* was “blocks”. The IC50 in the data set with α9 homomers is 1.1 nM.

Usually IC50 stands for the concentration needed to halve the response being measured.
